Experimental findings from patent US20210177828A1, “TAM FAMILY KINASE /AND CSF1R KINASE INHIBITOR AND USE THEREOF” (Nanjing Transthera Biosciences Co., Ltd., priority 2018, published 2021) are described below.

A value given as a limit tells only on which side of the number the result lay.

Common to all, as to format: biochemical
The target of test [1] is CSF1R (h) (Homo sapiens, UniProt P07333). The experiment in a line: Enzymatic activity assay, CSF1R (h), [γ-33P]-ATP filter assay. Particulars: 10 μM ATP, 40 min room temperature; read-out: Inhibitory activity IC50 CSF1R(h). The method, then:
(§1) Compounds were each dissolved in 100% DMSO to prepare stock solutions with a maximum concentration of 500 μM.
(§2) Compound working solutions (50×) were prepared by diluting a compound stock solution to a final concentration of 500, 150, 50, 15, 5, 1.5, 0.5, 0.15 and 0.05 μM.
An enzyme solution with a final concentration of 64 nM was prepared by dissolving CSF1R enzyme in a mixture of 8 mM MOPS (pH 7.0), 0.2 mM EDTA and 250 μM KKSRGDYMTMQIG. A Mg/ATP mixture of 10 mM magnesium acetate and 10 μM [γ-^33P]-ATP was used to activate the enzymatic reaction.
(§3) A compound working solution was added to a 384-well plate, with final concentrations of 10,000, 3,000, 1,000, 300, 100, 30, 10, 3 and 1 nM, and then different enzymatic reaction solutions prepared according to the above conditions were added. The reaction solutions were incubated at room temperature for 40 min, and then 0.5% phosphoric acid solutions were added to terminate the reaction. 10 μL of the reaction solution was added dropwise to P30 filter paper, washed 4 times with a 0.425% phosphoric acid solution and once with methanol, and then placed in a scintillation counter for detection. Gray analysis was performed on the results with Image J software, and IC50 values were calculated with GraphPad 5.0 software.

In test [2] the target is T1, Mer (h) (Homo sapiens, UniProt Q12866).
T1 sequence (Q12866 21-999): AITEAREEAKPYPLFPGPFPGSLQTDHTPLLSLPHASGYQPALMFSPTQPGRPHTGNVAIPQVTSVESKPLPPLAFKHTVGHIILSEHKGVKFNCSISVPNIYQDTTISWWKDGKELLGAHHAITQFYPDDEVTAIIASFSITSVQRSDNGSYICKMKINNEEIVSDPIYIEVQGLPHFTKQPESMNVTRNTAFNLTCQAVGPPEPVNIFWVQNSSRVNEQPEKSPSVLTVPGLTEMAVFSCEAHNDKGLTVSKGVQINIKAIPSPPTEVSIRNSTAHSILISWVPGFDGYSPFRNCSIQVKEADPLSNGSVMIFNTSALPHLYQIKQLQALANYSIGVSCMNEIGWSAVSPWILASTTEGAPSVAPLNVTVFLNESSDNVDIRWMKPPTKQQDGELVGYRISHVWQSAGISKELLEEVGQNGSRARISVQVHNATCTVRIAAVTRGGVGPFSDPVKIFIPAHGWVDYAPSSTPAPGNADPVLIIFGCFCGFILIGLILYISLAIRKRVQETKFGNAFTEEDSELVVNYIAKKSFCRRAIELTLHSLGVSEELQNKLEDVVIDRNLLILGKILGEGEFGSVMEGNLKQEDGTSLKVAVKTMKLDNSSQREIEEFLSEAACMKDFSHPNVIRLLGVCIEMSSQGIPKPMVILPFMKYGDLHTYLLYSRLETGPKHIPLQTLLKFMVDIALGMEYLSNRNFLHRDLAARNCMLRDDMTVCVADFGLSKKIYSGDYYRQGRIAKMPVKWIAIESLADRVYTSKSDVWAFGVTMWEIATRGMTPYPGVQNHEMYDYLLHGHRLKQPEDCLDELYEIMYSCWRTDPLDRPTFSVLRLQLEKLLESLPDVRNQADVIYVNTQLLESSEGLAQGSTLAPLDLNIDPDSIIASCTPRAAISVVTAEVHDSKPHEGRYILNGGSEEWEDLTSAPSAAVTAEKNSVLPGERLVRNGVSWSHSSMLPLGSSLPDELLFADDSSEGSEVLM
The test is described as follows: Enzymatic activity assay, Mer (h), [γ-33P]-ATP filter assay. Particulars: 10 μM ATP, 40 min room temperature; read-out: Inhibitory activity IC50 Mer(h). The method, then:
as §1, §2
An enzyme solution with a final concentration of 3.1 nM was prepared by dissolving Mer (h) enzyme in a mixture of 8 mM MOPS (pH 7.0), 0.2 mM EDTA, 30 mM NaCl and 250 μM GGMEDIYFEFMGGKKK. A Mg/ATP mixture of 10 mM magnesium acetate and 10 μM [γ-^33P]-ATP was used to activate the enzymatic reaction.
as §3

Test [3] has as its target T2, Axl (h) (Homo sapiens, UniProt P30530).
T2 sequence (P30530 26-894): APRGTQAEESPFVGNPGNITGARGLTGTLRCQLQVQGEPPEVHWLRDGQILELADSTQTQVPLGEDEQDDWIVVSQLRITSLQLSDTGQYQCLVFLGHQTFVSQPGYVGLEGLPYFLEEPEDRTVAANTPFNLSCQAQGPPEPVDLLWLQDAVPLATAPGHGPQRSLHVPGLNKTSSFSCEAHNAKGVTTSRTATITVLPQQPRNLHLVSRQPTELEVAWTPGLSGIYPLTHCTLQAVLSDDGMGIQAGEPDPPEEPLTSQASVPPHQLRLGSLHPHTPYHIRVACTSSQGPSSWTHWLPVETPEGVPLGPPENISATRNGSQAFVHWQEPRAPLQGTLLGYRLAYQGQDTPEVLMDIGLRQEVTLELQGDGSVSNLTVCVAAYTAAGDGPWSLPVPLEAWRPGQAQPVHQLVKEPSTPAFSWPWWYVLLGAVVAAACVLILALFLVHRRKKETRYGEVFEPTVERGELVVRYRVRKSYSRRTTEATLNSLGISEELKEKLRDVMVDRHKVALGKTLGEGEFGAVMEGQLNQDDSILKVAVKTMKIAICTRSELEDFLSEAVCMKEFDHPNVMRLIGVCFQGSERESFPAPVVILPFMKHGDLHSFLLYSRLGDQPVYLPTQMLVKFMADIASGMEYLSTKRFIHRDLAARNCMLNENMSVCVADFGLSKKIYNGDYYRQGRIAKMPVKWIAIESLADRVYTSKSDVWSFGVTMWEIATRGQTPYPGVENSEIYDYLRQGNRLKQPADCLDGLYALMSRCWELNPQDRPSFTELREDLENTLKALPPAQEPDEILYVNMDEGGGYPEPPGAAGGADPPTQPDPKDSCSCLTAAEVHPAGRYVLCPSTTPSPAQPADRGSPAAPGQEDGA
The experiment in a line: Enzymatic activity assay, Axl (h), [γ-33P]-ATP filter assay. The settings on record: 10 μM ATP, 40 min room temperature; read-out: Inhibitory activity IC50 Axl(h). The procedure:
as §1, §2
An enzyme solution with a final concentration of 1.7 nM was prepared by dissolving Axl (h) enzyme in a mixture of 8 mM MOPS (pH 7.0), 0.2 mM EDTA and 250 μM KKSRGDYMTMQIG. A Mg/ATP mixture of 10 mM magnesium acetate and 10 μM [γ-^33P]-ATP was used to activate the enzymatic reaction.
as §3

Sequence of CSF1R (h) (P07333 20-972): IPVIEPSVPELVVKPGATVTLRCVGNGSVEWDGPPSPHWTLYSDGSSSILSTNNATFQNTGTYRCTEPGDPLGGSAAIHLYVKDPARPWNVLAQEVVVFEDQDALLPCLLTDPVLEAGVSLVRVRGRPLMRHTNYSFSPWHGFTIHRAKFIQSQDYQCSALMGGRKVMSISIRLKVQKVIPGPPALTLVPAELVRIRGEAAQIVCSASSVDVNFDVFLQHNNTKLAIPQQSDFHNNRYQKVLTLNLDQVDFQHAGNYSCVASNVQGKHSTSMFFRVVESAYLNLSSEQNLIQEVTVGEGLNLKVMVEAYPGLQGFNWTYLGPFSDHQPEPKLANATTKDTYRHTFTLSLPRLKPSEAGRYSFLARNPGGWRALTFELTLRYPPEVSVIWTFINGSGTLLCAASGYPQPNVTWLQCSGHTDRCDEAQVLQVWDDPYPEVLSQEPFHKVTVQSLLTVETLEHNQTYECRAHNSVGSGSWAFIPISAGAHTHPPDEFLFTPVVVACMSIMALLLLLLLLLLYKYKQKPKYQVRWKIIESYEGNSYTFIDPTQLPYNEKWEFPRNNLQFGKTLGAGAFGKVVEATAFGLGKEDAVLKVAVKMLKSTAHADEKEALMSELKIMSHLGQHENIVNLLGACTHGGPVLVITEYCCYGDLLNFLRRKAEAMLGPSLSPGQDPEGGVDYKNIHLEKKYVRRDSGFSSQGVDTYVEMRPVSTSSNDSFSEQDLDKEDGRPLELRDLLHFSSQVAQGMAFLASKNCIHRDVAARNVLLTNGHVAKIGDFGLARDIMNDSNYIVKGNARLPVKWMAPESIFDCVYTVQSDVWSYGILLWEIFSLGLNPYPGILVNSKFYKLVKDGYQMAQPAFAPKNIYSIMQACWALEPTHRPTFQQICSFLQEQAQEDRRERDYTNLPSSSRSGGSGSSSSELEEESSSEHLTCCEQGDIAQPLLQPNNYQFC

With `COc1cc2nccc(Oc3ccc(NC(=O)c4nn(C5CCOCC5)cc(-c5ccc(C)cc5)c4=O)nc3)c2cc1OC` [Compound 17, N-(5-((6,7-dimethoxyquinolin-4-yl)oxy)pyridin-2-yl)-4-oxo-1-(tetrahydro-2H-pyran-4-yl)-5-(p-tolyl)-1,4-dihydropyridazin-3-carboxamide], the IC50 was less than 200 nM in test [1], 1 nM in test [2] and 3 nM in test [3].
The corresponding values for `COc1cc2nccc(Oc3cnc(NC(=O)c4nn(C5CCOCC5)cc(-c5ccc(C)cc5)c4=O)nc3)c2cc1OC` [Compound 18, N-(5-((6,7-dimethoxyquinolin-4-yl)oxy)pyrimidin-2-yl)-4-oxo-1-(tetrahydro-2H-pyran-4-yl)-5-(p-tolyl)-1,4-dihydropyridazin-3-carboxamide] are less than 200 nM, 5 nM and 7 nM.
Consider `COc1cc2nccc(Oc3cnc(NC(=O)c4cn(C5CCOCC5)cc(-c5ccc(C)cc5)c4=O)nc3)c2cc1OC` [Compound 20, N-(5-((6,7-dimethoxyquinolin-4-yl)oxy)pyrimidin-2-yl)-4-oxo-1-(tetrahydro-2H-pyran-4-yl)-5-(p-tolyl)-1,4-dihydropyridin-3-carboxamide], for which the IC50 in test [1] was less than 200 nM; in test [2], 14 nM; in test [3] it was 4 nM.
As to `COc1cc2nccc(Oc3ccc(NC(=O)c4cc(CC5CCOCC5)cn(-c5ccc(C)cc5)c4=O)nc3)c2cc1OC` [Compound 26, N-(5-((6,7-dimethoxyquinolin-4-yl)oxy)pyridin-2-yl)-oxo-5-((tetrahydro-2H-pyran-4-yl)methyl)-1-(p-tolyl)-1,2-dihydropyridin-3-carboxamide], the values for the IC50 in test [1], in test [2] and in test [3] were less than 200 nM, 8 nM and 20 nM, respectively.
Take `COc1cc2nccc(Oc3ccc(NC(=O)c4cn(C5CCOCC5)cc(-c5ccc(F)cc5)c4=O)nc3)c2cc1OC` [Compound 27, N-(5-((6,7-dimethoxyquinolin-4-yl)oxy)pyridin-2-yl)-5-(4-fluorophenyl)-4-oxo-1-(tetrahydro-2H-pyran-4-yl)-1,4-dihydropyridin-3-carboxamide]: the figures for the 50% inhibitory concentration (IC50) in test [1], in test [2] and in test [3] were less than 200 nM, 7 nM and 13 nM, respectively.
For `COc1cc2nccc(Oc3ccc(NC(=O)c4nn(C5CCOCC5)cc(-c5ccc(C)cc5)c4=O)cc3F)c2cc1OC` [Compound 28], in that order: less than 200 nM, 1 nM and 23 nM.
The corresponding values for `COc1cc2nccc(Oc3cnc(NC(=O)c4cn(C5CCOCC5)cc(-c5ccc(F)cc5)c4=O)nc3)c2cc1OC` [Compound 31, N-(5-((6,7-dimethoxyquinolin-4-yl)oxy)pyrimidin-2-yl)-5-(4-fluorophenyl)-4-oxo-1-(tetrahydro-2H-pyran-4-yl)-1,4-dihydropyridin-3-carboxamide] are less than 200 nM, 8 nM and 15 nM.
Take `COc1cc2nccc(Oc3ccc(NC(=O)c4cc(CC5CCOCC5)cn(-c5ccc(F)cc5)c4=O)nc3)c2cc1OC` [Compound 32, N-(5-((6,7-dimethoxyquinolin-4-yl)oxy)pyridin-2-yl)-1-(4-fluorophenyl)-2-oxo-5-((tetrahydro-2H-pyran-4-yl)methy 1)-1,2-dihydropyridin-3-carboxamide]: the results for the IC50 in test [1], in test [2] and in test [3] were less than 200 nM, 12 nM and 31 nM, respectively.
Turning to `COc1cc2nccc(Oc3cnc(NC(=O)c4nn(C5CCOCC5)cc(-c5ccc(F)cc5)c4=O)nc3)c2cc1OC` [Compound 33, N-(5-((6,7-dimethoxyquinolin-4-yl)oxy)pyrimidin-2-yl)-5-(4-fluorophenyl)-4-oxo-1-(tetrahydro-2H-pyran-4-yl)-1,4-dihydropyridazin-3-carboxamide], the IC50 in test [1] was less than 200 nM; in test [2], 6 nM; in test [3], 27 nM.
For `COc1cc2nccc(Oc3ccc(NC(=O)c4nn(C5CCOCC5)cc(-c5ccc(F)cc5)c4=O)nc3)c2cc1OC` [Compound 34, N-(5-((6,7-dimethoxyquinolin-4-yl)oxy)pyridin-2-yl)-5-(4-fluorophenyl)-4-oxo-1-(tetrahydro-2H-pyran-4-yl)-1,4-dihydropyridazin-3-carboxamide], in that order: less than 200 nM, 2 nM and 29 nM.

The term IC50 denotes the concentration that gives 50% inhibition.
